Patent publication US10004701B2, “Methods and compositions for treating infection” (UNIVERSITY OF ROCHESTER, priority 2012, dated 2018)
Structures can show the parent of a compound that is named as a salt. Where two headings read alike, the source gives them in different places.

Tests used:
Assay in all cases: AK assay 384-well format, Prestwick library screening
[1] = system: S. aureus strain USA300-0114; type: cell-based, Staphylococcus aureus; details: Staphylococcus aureus, USA300, 3 h
E. coli = type: cell-based, Escherichia coli; details: Escherichia coli, 3 h
[2] = system: A. baumannii strain 98-37-09; type: cell-based, Acinetobacter baumannii; details: Acinetobacter baumannii, 983709, 3 h
K. pneumoniae = type: cell-based, Klebsiella pneumoniae; details: Klebsiella pneumoniae, 3 h
E. faecium = type: cell-based, Enterococcus faecium; details: Enterococcus faecium, 3 h
E. cloacae = type: cell-based, Enterobacter cloacae; details: Enterobacter cloacae, 3 h
P. aeruginosa = type: cell-based, Pseudomonas aeruginosa; details: Pseudomonas aeruginosa, 3 h
[3] = 50 μM final drug concentration, planktonic, […], read-out: AK-based Prestwick Library Screening Results, S. aureus (fold increase in extracellular AK activity)
[4] = 50 μM final drug concentration, planktonic, […], read-out: AK-based Prestwick Library Screening Results, E. coli (fold increase in extracellular AK activity)
[5] = 50 μM final drug concentration, planktonic, […], read-out: AK-based Prestwick Library Screening Results, A. baumannii (fold increase in extracellular AK activity)
[6] = 50 μM final drug concentration, planktonic, […], read-out: AK-based Prestwick Library Screening Results, K. pneumoniae (fold increase in extracellular AK activity)
[7] = 50 μM final drug concentration, planktonic, […], read-out: AK-based Prestwick Library Screening Results, E. faecium (fold increase in extracellular AK activity)
[8] = 50 μM final drug concentration, planktonic, […], read-out: AK-based Prestwick Library Screening Results, E. cloacae (fold increase in extracellular AK activity)
[9] = 50 μM final drug concentration, planktonic, […], read-out: AK-based Prestwick Library Screening Results, P. aeruginosa (fold increase in extracellular AK activity)
[10] = 50 μM final drug concentration, planktonic, cutoff for positive 3-fold increase, read-out: AK-based Prestwick Library Screening Results, S. aureus (fold increase in extracellular AK activity)
[11] = 50 μM final drug concentration, planktonic, cutoff for positive 3-fold increase, read-out: AK-based Prestwick Library Screening Results, E. coli (fold increase in extracellular AK activity)
[12] = 50 μM final drug concentration, planktonic, cutoff for positive 3-fold increase, read-out: AK-based Prestwick Library Screening Results, A. baumannii (fold increase in extracellular AK activity)
[13] = 50 μM final drug concentration, planktonic, cutoff for positive 3-fold increase, read-out: AK-based Prestwick Library Screening Results, K. pneumoniae (fold increase in extracellular AK activity)
[14] = 50 μM final drug concentration, planktonic, cutoff for positive 3-fold increase, read-out: AK-based Prestwick Library Screening Results, E. faecium (fold increase in extracellular AK activity)
[15] = 50 μM final drug concentration, planktonic, cutoff for positive 3-fold increase, read-out: AK-based Prestwick Library Screening Results, E. cloacae (fold increase in extracellular AK activity)
[16] = 50 μM final drug concentration, planktonic, cutoff for positive 3-fold increase, read-out: AK-based Prestwick Library Screening Results, P. aeruginosa (fold increase in extracellular AK activity)

C=C(NC(=O)C(=C)NC(=O)c1csc(C2=N[C@@H]3c4csc(n4)[C@H]4NC(=O)c5csc(n5)[C@H]([C@](C)(O)[C@@H](C)O)NC(=O)[C@H]5CSC(=N5)/C(=C/C)NC(=O)[C@H]([C@@H](C)O)NC(=O)c5csc(n5)[C@]3(CC2)NC(=O)[C@H](C)NC(=O)C(=C)NC(=O)[C@H](C)NC(=O)[C@H]([C@@H](C)CC)N[C@@H]2C=Cc3c([C@H](C)O)cc(nc3[C@H]2O)C(=O)O[C@@H]4C)n1)C(N)=O [Thiostrepton]
fold induction at 50 µM [1, 3]: 0.4 | fold induction at 50 µM (E. coli; [4]): 1.3 | fold induction at 50 µM [2, 5]: 1.1 | fold induction at 50 µM (K. pneumoniae; [6]): 1 | fold induction at 50 µM (E. faecium; [7]): 1 | fold induction at 50 µM (E. cloacae; [8]): 1.4 | fold induction at 50 µM (P. aeruginosa; [9]): 0.9

N=C(N)c1ccc(OCCCCCOc2ccc(C(=N)N)cc2)cc1 [Pentamidine isethionate]
fold induction at 50 µM [1, 10]: 1.9 | fold induction at 50 µM (E. coli; [11]): 1.4 | fold induction at 50 µM [2, 12]: 1.2 | fold induction at 50 µM (K. pneumoniae; [13]): 1.2 | fold induction at 50 µM (E. faecium; [14]): 1.4 | fold induction at 50 µM (E. cloacae; [15]): 1.4 | fold induction at 50 µM (P. aeruginosa; [16]): 1.2

CC(=O)[C@H]1CC[C@H]2[C@@H]3CC[C@H]4C[C@H](O)CC[C@]4(C)[C@H]3C(=O)C[C@]12C [Alfaxalone]
fold induction at 50 µM ([1]; read-out: AK-based Prestwick library screening result, S. aureus (fold increase in extracellular AK activity)): 1.2 | fold induction at 50 µM (E. coli; read-out: AK-based Prestwick library screening result, E. coli (fold increase in extracellular AK activity)): 1.2 | fold induction at 50 µM ([2]; read-out: AK-based Prestwick library screening result, A. baumannii (fold increase in extracellular AK activity)): 1 | fold induction at 50 µM (K. pneumoniae; read-out: AK-based Prestwick library screening result, K. pneumoniae (fold increase in extracellular AK activity)): 1 | fold induction at 50 µM (E. faecium; read-out: AK-based Prestwick library screening result, E. faecium (fold increase in extracellular AK activity)): 1.1 | fold induction at 50 µM (E. cloacae; read-out: AK-based Prestwick library screening result, E. cloacae (fold increase in extracellular AK activity)): 1.7 | fold induction at 50 µM (P. aeruginosa; read-out: AK-based Prestwick library screening result, P. aeruginosa (fold increase in extracellular AK activity)): 1.2

CCCCOc1cc(C(=O)NCCN(CC)CC)c2ccccc2n1 [Dibucaine]
fold induction at 50 µM ([1]; planktonic S. aureus, 50 μM final drug concentration, 384-well, cutoff for positive-scoring molecules 3-fold increase, read-out: AK-based Prestwick Library Screening Results: S. aureus (increase in extracellular AK activity)): 1.3 | fold induction at 50 µM (E. coli; planktonic E. coli, 50 μM final drug concentration, 384-well, cutoff for positive-scoring molecules 3-fold increase, read-out: AK-based Prestwick Library Screening Results: E. coli (increase in extracellular AK activity)): 1.3 | fold induction at 50 µM ([2]; planktonic A. baumannii, 50 μM final drug concentration, 384-well, cutoff for positive-scoring molecules 3-fold increase, read-out: AK-based Prestwick Library Screening Results: A. baumannii (increase in extracellular AK activity)): 1.3 | fold induction at 50 µM (K. pneumoniae; planktonic K. pneumoniae, 50 μM final drug concentration, 384-well, cutoff for positive-scoring molecules 3-fold increase, read-out: AK-based Prestwick Library Screening Results: K. pneumoniae (increase in extracellular AK activity)): 1.1 | fold induction at 50 µM (E. faecium; planktonic E. faecium, 50 μM final drug concentration, 384-well, cutoff for positive-scoring molecules 3-fold increase, read-out: AK-based Prestwick Library Screening Results: E. faecium (increase in extracellular AK activity)): 0.9 | fold induction at 50 µM (E. cloacae; planktonic E. cloacae, 50 μM final drug concentration, 384-well, cutoff for positive-scoring molecules 3-fold increase, read-out: AK-based Prestwick Library Screening Results: E. cloacae (increase in extracellular AK activity)): 1.7 | fold induction at 50 µM (P. aeruginosa; planktonic P. aeruginosa, 50 μM final drug concentration, 384-well, cutoff for positive-scoring molecules 3-fold increase, read-out: AK-based Prestwick Library Screening Results: P. aeruginosa (increase in extracellular AK activity)): 1.1

N#Cc1ccc(C(c2ccc(C#N)cc2)n2cncn2)cc1 [Letrozole]
fold induction at 50 µM ([1]; planktonic S. aureus, 50 μM final drug concentration, positive cutoff 3-fold increase, read-out: AK-based Prestwick library screening result, S. aureus (fold increase in extracellular AK activity)): 1.2 | fold induction at 50 µM (E. coli; planktonic E. coli, 50 μM final drug concentration, positive cutoff 3-fold increase, read-out: AK-based Prestwick library screening result, E. coli (fold increase in extracellular AK activity)): 1.2 | fold induction at 50 µM ([2]; planktonic A. baumannii, 50 μM final drug concentration, positive cutoff 3-fold increase, read-out: AK-based Prestwick library screening result, A. baumannii (fold increase in extracellular AK activity)): 1.3 | fold induction at 50 µM (K. pneumoniae; planktonic K. pneumoniae, 50 μM final drug concentration, positive cutoff 3-fold increase, read-out: AK-based Prestwick library screening result, K. pneumoniae (fold increase in extracellular AK activity)): 1.1 | fold induction at 50 µM (E. faecium; planktonic E. faecium, 50 μM final drug concentration, positive cutoff 3-fold increase, read-out: AK-based Prestwick library screening result, E. faecium (fold increase in extracellular AK activity)): 1 | fold induction at 50 µM (E. cloacae; planktonic E. cloacae, 50 μM final drug concentration, positive cutoff 3-fold increase, read-out: AK-based Prestwick library screening result, E. cloacae (fold increase in extracellular AK activity)): 1.4 | fold induction at 50 µM (P. aeruginosa; planktonic P. aeruginosa, 50 μM final drug concentration, positive cutoff 3-fold increase, read-out: AK-based Prestwick library screening result, P. aeruginosa (fold increase in extracellular AK activity)): 1

CCCSc1ccc2nc(NC(=O)OC)[nH]c2c1 [Albendazole]
fold induction at 50 µM ([1]; 50 μM final drug concentration, 384-well format, […], read-out: AK-based Prestwick Library Screening Results, S. aureus (increase in extracellular AK activity)): 0.2 | fold induction at 50 µM (E. coli; 50 μM final drug concentration, 384-well format, […], read-out: AK-based Prestwick Library Screening Results, E. coli (increase in extracellular AK activity)): 0.3 | fold induction at 50 µM ([2]; 50 μM final drug concentration, 384-well format, […], read-out: AK-based Prestwick Library Screening Results, A. baumannii (increase in extracellular AK activity)): 0.3 | fold induction at 50 µM (K. pneumoniae; 50 μM final drug concentration, 384-well format, […], read-out: AK-based Prestwick Library Screening Results, K. pneumoniae (increase in extracellular AK activity)): 0.3 | fold induction at 50 µM (E. faecium; 50 μM final drug concentration, 384-well format, […], read-out: AK-based Prestwick Library Screening Results, E. faecium (increase in extracellular AK activity)): 0.5 | fold induction at 50 µM (E. cloacae; read-out: AK-based Prestwick Library Screening Results, E. cloacae (increase in extracellular AK activity)): 0.4 | fold induction at 50 µM (P. aeruginosa; 50 μM final drug concentration, 384-well format, […], read-out: AK-based Prestwick Library Screening Results, P. aeruginosa (increase in extracellular AK activity)): 0.3

CN(C)[C@@H]1C(O)=C(C(=O)NCN2CCCC2)C(=O)[C@@]2(O)C(O)=C3C(=O)c4c(O)cccc4[C@@](C)(O)[C@H]3C[C@@H]12 [Rolitetracycline]
fold induction at 50 µM ([1]; 50 μM final drug concentration, cutoff for positive-scoring molecules 3-fold increase, read-out: AK-based Prestwick Library Screening Results, S. aureus (fold increase in extracellular AK activity)): 1.1 | fold induction at 50 µM (E. coli; 50 μM final drug concentration, cutoff for positive-scoring molecules 3-fold increase, read-out: AK-based Prestwick Library Screening Results, E. coli (fold increase in extracellular AK activity)): 1.1 | fold induction at 50 µM ([2]; 50 μM final drug concentration, cutoff for positive-scoring molecules 3-fold increase, read-out: AK-based Prestwick Library Screening Results, A. baumannii (fold increase in extracellular AK activity)): 1.2 | fold induction at 50 µM (K. pneumoniae; 50 μM final drug concentration, cutoff for positive-scoring molecules 3-fold increase, read-out: AK-based Prestwick Library Screening Results, K. pneumoniae (fold increase in extracellular AK activity)): 1 | fold induction at 50 µM (E. faecium; 50 μM final drug concentration, cutoff for positive-scoring molecules 3-fold increase, read-out: AK-based Prestwick Library Screening Results, E. faecium (fold increase in extracellular AK activity)): 1 | fold induction at 50 µM (E. cloacae; 50 μM final drug concentration, cutoff for positive-scoring molecules 3-fold increase, read-out: AK-based Prestwick Library Screening Results, E. cloacae (fold increase in extracellular AK activity)): 1.7 | fold induction at 50 µM (P. aeruginosa; 50 μM final drug concentration, cutoff for positive-scoring molecules 3-fold increase, read-out: AK-based Prestwick Library Screening Results, P. aeruginosa (fold increase in extracellular AK activity)): 1.1

CN(C)CCC(c1ccc(Br)cc1)c1ccccn1 (stereo not drawn) [Brompheniramine maleate]
fold induction at 50 µM [1, 10]: 1.1 | fold induction at 50 µM (E. coli; [11]): 1.4 | fold induction at 50 µM [2, 12]: 1.2 | fold induction at 50 µM (K. pneumoniae; [13]): 1.1 | fold induction at 50 µM (E. faecium; [14]): 1 | fold induction at 50 µM (E. cloacae; [15]): 2 | fold induction at 50 µM (P. aeruginosa; [16]): 1.1

CO[C@H](C)[C@](O)(C(=O)OCC1=CCN2CC[C@H](O)[C@@H]12)C(C)C [Heliotrine]
fold induction at 50 µM [1, 3]: 1.4 | fold induction at 50 µM (E. coli; [4]): 1.2 | fold induction at 50 µM [2, 5]: 1 | fold induction at 50 µM (K. pneumoniae; [6]): 1 | fold induction at 50 µM (E. faecium; [7]): 1 | fold induction at 50 µM (E. cloacae; [8]): 1.7 | fold induction at 50 µM (P. aeruginosa; [9]): 1
